Details: Coaxial cylinder method

CCC [propane]
thermal conductivity [W/m/K]
Details | 364.65 K | 365.72 K
3306 kPa, Gas | – | 0.03402
3306 kPa, Liquid | – | 0.03402
3818 kPa, Gas | 0.04192 | –
3819 kPa, Gas | 0.04192 | –
3820 kPa, Gas | 0.04192 | –
3826 kPa, Gas | 0.04799 | –
3827 kPa, Gas | 0.05041 | –
3828 kPa, Gas | 0.05375 | –
3829 kPa, Gas | 0.05683 | –
3830 kPa, Gas | 0.05989 | –
3831 kPa, Gas | 0.06347 | –
3832 kPa, Gas | 0.0673 | –
3833 kPa, Gas | 0.07157 | –
3834 kPa, Gas | 0.0754 | –
3835 kPa, Gas | 0.07969 | –
3836 kPa, Gas | 0.08397 | –
3837 kPa, Gas | 0.08791 | –
3838 kPa, Gas | 0.09202 | –
3839 kPa, Gas | 0.09605 | –
3840 kPa, Gas | 0.1002 | –
3841 kPa, Gas | 0.1044 | –
3842 kPa, Gas | 0.1088 | –
3843 kPa, Gas | 0.1131 | –
3844 kPa, Gas | 0.1173 | –
3845 kPa, Gas | 0.1218 | –
3846 kPa, Gas | 0.1263 | –
3847 kPa, Gas | 0.1307 | –
3848 kPa, Gas | 0.135 | –
3849 kPa, Gas | 0.14 | –
3850 kPa, Gas | 0.1445 | –
3851 kPa, Gas | 0.1491 | –
3852 kPa, Gas | 0.1538 | –
3853 kPa, Gas | 0.1584 | –
3854 kPa, Gas | 0.1635 | –
3855 kPa, Gas | 0.1693 | –
3856 kPa, Gas | 0.1732 | –
3857 kPa, Gas | 0.1782 | –
3858 kPa, Gas | 0.1831 | –
3859 kPa, Gas | 0.1881 | –
3860 kPa, Gas | 0.1933 | –
3861 kPa, Gas | 0.1983 | –
3862 kPa, Gas | 0.2036 | –
3863 kPa, Gas | 0.2089 | –
3864 kPa, Gas | 0.2141 | –
3865 kPa, Gas | 0.2194 | –
3866 kPa, Gas | 0.2249 | –
3867 kPa, Gas | 0.2303 | –
3868 kPa, Gas | 0.2361 | –
3869 kPa, Gas | 0.2404 | –
3870 kPa, Liquid | 0.2611 | –
3871 kPa, Liquid | 0.2548 | –
3872 kPa, Liquid | 0.249 | –
3873 kPa, Liquid | 0.2424 | –
3874 kPa, Liquid | 0.2366 | –
3875 kPa, Liquid | 0.2306 | –
3876 kPa, Liquid | 0.2246 | –
3877 kPa, Liquid | 0.2189 | –
3878 kPa, Liquid | 0.2127 | –
3879 kPa, Liquid | 0.2068 | –
3880 kPa, Liquid | 0.2008 | –
3881 kPa, Liquid | 0.1952 | –
3882 kPa, Gas | – | 0.04279
3882 kPa, Liquid | 0.1898 | –
3883 kPa, Gas | – | 0.04289
3883 kPa, Liquid | 0.1838 | –
3884 kPa, Gas | – | 0.04575
3884 kPa, Liquid | 0.1778 | –
3885 kPa, Gas | – | 0.04607
3885 kPa, Liquid | 0.1728 | –
3886 kPa, Liquid | 0.1668 | –
3887 kPa, Liquid | 0.1613 | –
3888 kPa, Liquid | 0.1556 | –
3889 kPa, Liquid | 0.1503 | –
3890 kPa, Gas | – | 0.05157
3890 kPa, Liquid | 0.1444 | –
3891 kPa, Gas | – | 0.05307
3891 kPa, Liquid | 0.1391 | –
3892 kPa, Gas | – | 0.05526
3892 kPa, Liquid | 0.1337 | –
3893 kPa, Gas | – | 0.0573
3893 kPa, Liquid | 0.1279 | –
3894 kPa, Gas | – | 0.05933
3894 kPa, Liquid | 0.1224 | –
3895 kPa, Gas | – | 0.06131
3895 kPa, Liquid | 0.117 | –
3896 kPa, Gas | – | 0.06342
3896 kPa, Liquid | 0.1115 | –
3897 kPa, Gas | – | 0.06568
3897 kPa, Liquid | 0.1061 | –
3898 kPa, Gas | – | 0.06813
3898 kPa, Liquid | 0.1008 | –
3899 kPa, Gas | – | 0.07049
3899 kPa, Liquid | 0.09527 | –
3900 kPa, Gas | – | 0.07276
3900 kPa, Liquid | 0.08987 | –
3901 kPa, Gas | – | 0.07497
3901 kPa, Liquid | 0.08442 | –
3902 kPa, Gas | – | 0.07801
3902 kPa, Liquid | 0.07906 | –
3903 kPa, Gas | – | 0.0811
3903 kPa, Liquid | 0.07632 | –
3904 kPa, Gas | – | 0.08423
3904 kPa, Liquid | 0.0735 | –
3905 kPa, Gas | – | 0.08726
3905 kPa, Liquid | 0.07087 | –
3906 kPa, Gas | – | 0.09038
3906 kPa, Liquid | 0.06861 | –
3907 kPa, Gas | – | 0.09365
3907 kPa, Liquid | 0.06633 | –
3908 kPa, Gas | – | 0.09697
3908 kPa, Liquid | 0.06424 | –
3909 kPa, Gas | – | 0.1001
3909 kPa, Liquid | 0.06367 | –
3910 kPa, Gas | – | 0.1033
3910 kPa, Liquid | 0.06367 | –
3911 kPa, Gas | – | 0.1068
3911 kPa, Liquid | 0.06367 | –
3912 kPa, Gas | – | 0.1099
3912 kPa, Liquid | 0.06367 | –
3913 kPa, Gas | – | 0.1132
3913 kPa, Liquid | 0.06367 | –
3914 kPa, Gas | – | 0.1164
3914 kPa, Liquid | 0.06367 | –
3915 kPa, Gas | – | 0.1201
3915 kPa, Liquid | 0.0637 | –
3916 kPa, Gas | – | 0.1234
3917 kPa, Gas | – | 0.1273
3918 kPa, Gas | – | 0.1307
3919 kPa, Gas | – | 0.1341
3920 kPa, Gas | – | 0.1379
3920 kPa, Liquid | 0.06366 | –
3921 kPa, Gas | – | 0.1413
3922 kPa, Gas | – | 0.1454
3923 kPa, Gas | – | 0.149
3924 kPa, Gas | – | 0.1527
3925 kPa, Gas | – | 0.1565
3925 kPa, Liquid | 0.06366 | –
3926 kPa, Gas | – | 0.1605
3927 kPa, Gas | – | 0.1644
3928 kPa, Gas | – | 0.1684
3929 kPa, Gas | – | 0.1724
3930 kPa, Gas | – | 0.1763
3930 kPa, Liquid | 0.06362 | –
3931 kPa, Gas | – | 0.1804
3932 kPa, Gas | – | 0.1846
3933 kPa, Gas | – | 0.1886
3934 kPa, Gas | – | 0.1932
3935 kPa, Gas | – | 0.1972
3935 kPa, Liquid | 0.06364 | –
3936 kPa, Gas | – | 0.2015
3937 kPa, Gas | – | 0.2059
3938 kPa, Gas | – | 0.2104
3939 kPa, Gas | – | 0.2148
3940 kPa, Gas | – | 0.2193
3940 kPa, Liquid | 0.06364 | –
3941 kPa, Gas | – | 0.2241
3942 kPa, Gas | – | 0.229
3943 kPa, Gas | – | 0.2336
3944 kPa, Gas | – | 0.2401
3945 kPa, Liquid | 0.06362 | 0.2612
3946 kPa, Liquid | – | 0.2502
3947 kPa, Liquid | – | 0.2373
3948 kPa, Liquid | – | 0.224
3949 kPa, Liquid | – | 0.2125
3950 kPa, Liquid | 0.06362 | 0.2005
3951 kPa, Liquid | – | 0.1903
3952 kPa, Liquid | – | 0.1805
3953 kPa, Liquid | – | 0.1711
3954 kPa, Liquid | – | 0.1622
3955 kPa, Liquid | 0.06362 | 0.1544
3956 kPa, Liquid | – | 0.1467
3957 kPa, Liquid | – | 0.1394
3958 kPa, Liquid | – | 0.1335
3959 kPa, Liquid | – | 0.1273
3960 kPa, Liquid | 0.06362 | 0.1217
3961 kPa, Liquid | – | 0.1164
3962 kPa, Liquid | – | 0.1139
3963 kPa, Liquid | – | 0.1116
3964 kPa, Liquid | – | 0.1094
3965 kPa, Liquid | 0.06362 | 0.1072
3966 kPa, Liquid | – | 0.1052
3967 kPa, Liquid | – | 0.1032
3968 kPa, Liquid | – | 0.1013
3969 kPa, Liquid | – | 0.09939
3970 kPa, Liquid | 0.06362 | 0.09778
3971 kPa, Liquid | – | 0.09605
3972 kPa, Liquid | – | 0.09456
3973 kPa, Liquid | – | 0.09289
3974 kPa, Liquid | – | 0.09145
3975 kPa, Liquid | 0.0636 | 0.09005
3976 kPa, Liquid | – | 0.08869
3977 kPa, Liquid | – | 0.08737
3980 kPa, Liquid | 0.0636 | –
4000 kPa, Liquid | 0.06363 | –
4020 kPa, Liquid | 0.06367 | –
4040 kPa, Liquid | 0.06367 | –
4060 kPa, Liquid | 0.06371 | –
4080 kPa, Liquid | 0.06377 | –
4100 kPa, Liquid | 0.06381 | –
4120 kPa, Liquid | 0.06385 | –
4140 kPa, Liquid | 0.06391 | –
4160 kPa, Liquid | 0.06398 | –
4180 kPa, Liquid | 0.06404 | –
4200 kPa, Liquid | 0.06412 | –
4220 kPa, Liquid | 0.06418 | –
4240 kPa, Liquid | 0.06424 | –
4260 kPa, Liquid | 0.06432 | –
4280 kPa, Liquid | 0.06439 | –
4300 kPa, Liquid | 0.06445 | –
4349 kPa, Liquid | 0.06465 | –
4364 kPa, Liquid | 0.06469 | –
4372 kPa, Liquid | 0.06473 | –
4380 kPa, Liquid | 0.06475 | –
4388 kPa, Liquid | 0.06475 | –
